Data published in PubChem BioAssay (NCI).
Several values for one entry are separate records, joined by “and”; a condition that tells them apart may be missing. Identical values can stand only once.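 How tested: cells in 96-well plates exposed to compound for 48 hours at five concentrations. Here, GI50 denotes the concentration required for 50% inhibition of growth. TGI denotes the concentration required for complete inhibition of growth.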

How the values were obtained:
Assay in all cases: inhibition of tumour cell growth, NCI panel, 48 h
MDA-N = system: MDA-N
SK-MEL-5 melanoma = system: SK-MEL-5 melanoma
NCI-H522 lung = system: NCI-H522 lung
786-0 renal = system: 786-0 renal
SK-MEL-28 melanoma = system: SK-MEL-28 melanoma
PC-3 prostate = system: PC-3 prostate
T-47D breast = system: T-47D breast
MOLT-4 leukemia = system: MOLT-4 leukemia
KM12 colon = system: KM12 colon
MALME-3M melanoma = system: MALME-3M melanoma
TK-10 renal = system: TK-10 renal
M14 melanoma = system: M14 melanoma
RXF 393 renal = system: RXF 393 renal
NCI-H460 lung = system: NCI-H460 lung
CAKI-1 renal = system: CAKI-1 renal
MDA-MB-231 breast = system: MDA-MB-231 breast
A549 NSCLC = system: A549 NSCLC
SF-268 CNS = system: SF-268 CNS
OVCAR-3 ovarian = system: OVCAR-3 ovarian
SK-MEL-2 melanoma = system: SK-MEL-2 melanoma
UO-31 renal = system: UO-31 renal
NCI-H226 lung = system: NCI-H226 lung
NCI/ADR-RES ovarian = system: NCI/ADR-RES ovarian
UACC-257 melanoma = system: UACC-257 melanoma
HCT-116 colon = system: HCT-116 colon
SN12C renal = system: SN12C renal
MCF7 breast = system: MCF7 breast
SW-620 colon = system: SW-620 colon
SR leukemia = system: SR leukemia
HOP-62 NSCLC = system: HOP-62 NSCLC
SF-539 CNS = system: SF-539 CNS
HOP-92 NSCLC = system: HOP-92 NSCLC
NCI-H23 lung = system: NCI-H23 lung
BT-549 breast = system: BT-549 breast
SNB-19 CNS = system: SNB-19 CNS
HCC-2998 colon = system: HCC-2998 colon
SK-OV-3 ovarian = system: SK-OV-3 ovarian
IGROV1 ovarian = system: IGROV1 ovarian
ACHN renal = system: ACHN renal
UACC-62 melanoma = system: UACC-62 melanoma
RPMI-8226 leukemia = system: RPMI-8226 leukemia
OVCAR-4 ovarian = system: OVCAR-4 ovarian
A498 renal = system: A498 renal
OVCAR-8 ovarian = system: OVCAR-8 ovarian
CCRF-CEM leukemia = system: CCRF-CEM leukemia
MDA-MB-435 = system: MDA-MB-435
LOX IMVI melanoma = system: LOX IMVI melanoma
OVCAR-5 ovarian = system: OVCAR-5 ovarian
HL-60(TB) leukemia = system: HL-60(TB) leukemia
SF-295 CNS = system: SF-295 CNS
DU-145 prostate = system: DU-145 prostate
HCT-15 colon = system: HCT-15 colon
HT29 colon = system: HT29 colon
COLO 205 colon = system: COLO 205 colon
EKVX NSCLC = system: EKVX NSCLC
U251 CNS = system: U251 CNS
SNB-75 CNS = system: SNB-75 CNS
K-562 leukemia = system: K-562 leukemia
HS 578T breast = system: HS 578T breast

NC(N)=N/N=C(\c1ccc(F)cc1)c1ccc(C(F)(F)F)cc1
TGI (MDA-N): 0.494 µM | TGI (SK-MEL-5 melanoma): 3.67 µM | TGI (NCI-H522 lung): 0.525 µM | TGI (786-0 renal): 1.59 µM | TGI (SK-MEL-28 melanoma): 8 µM | TGI (PC-3 prostate): 5.51 µM | TGI (T-47D breast): 5.82 µM | TGI (MOLT-4 leukemia): 1.44 µM | TGI (KM12 colon): 2.04 µM | TGI (MALME-3M melanoma): 2.53 µM | TGI (TK-10 renal): 13.6 µM | TGI (M14 melanoma): 1.35 µM | TGI (RXF 393 renal): 0.633 µM | TGI (NCI-H460 lung): 2.09 µM | TGI (CAKI-1 renal): 4.98 µM | TGI (MDA-MB-231 breast): 1.15 µM | TGI (A549 NSCLC): 4.96 µM | TGI (SF-268 CNS): 9.96 µM | TGI (OVCAR-3 ovarian): 1.59 µM | TGI (SK-MEL-2 melanoma): 4.06 µM | TGI (UO-31 renal): 4.13 µM | TGI (NCI-H226 lung): 0.783 µM | TGI (NCI/ADR-RES ovarian): 4.35 µM | TGI (UACC-257 melanoma): 4.63 µM | TGI (HCT-116 colon): 1.28 µM | TGI (SN12C renal): 9.05 µM | TGI (MCF7 breast): 2.15 µM | TGI (SW-620 colon): 2.04 µM | TGI (SR leukemia): 1.47 µM | TGI (HOP-62 NSCLC): 0.955 µM | TGI (SF-539 CNS): 0.749 µM | TGI (HOP-92 NSCLC): 8.59 µM | TGI (NCI-H23 lung): 7.29 µM | TGI (BT-549 breast): 4.02 µM | TGI (SNB-19 CNS): 14.3 µM | TGI (HCC-2998 colon): 1.75 µM | TGI (SK-OV-3 ovarian): 4.94 µM | TGI (IGROV1 ovarian): 1.49 µM | TGI (ACHN renal): 10.1 µM | TGI (UACC-62 melanoma): 1.55 µM | TGI (RPMI-8226 leukemia): 2.21 µM | TGI (OVCAR-4 ovarian): 15.9 µM | TGI (A498 renal): 0.333 µM | TGI (OVCAR-8 ovarian): 3.09 µM | TGI (CCRF-CEM leukemia): 5.43 µM | TGI (MDA-MB-435): 0.298 µM | TGI (LOX IMVI melanoma): 1.64 µM | TGI (OVCAR-5 ovarian): 9.74 µM | TGI (HL-60(TB) leukemia): 0.762 µM | TGI (SF-295 CNS): 0.817 µM | TGI (DU-145 prostate): 7.76 µM | TGI (HCT-15 colon): 7.45 µM | TGI (HT29 colon): 4.98 µM | TGI (COLO 205 colon): 0.877 µM | TGI (EKVX NSCLC): 11.3 µM | TGI (U251 CNS): 4.72 µM | TGI (SNB-75 CNS): 7.77 µM | TGI (K-562 leukemia): 2.08 µM | TGI (HS 578T breast): 1.85 µM

O=C(NNC(=O)c1ccccc1S)c1ccccc1S
GI50 (MDA-N): 22.3 µM | TGI (MDA-N): 25 µM and > 100 µM | GI50 (SK-MEL-5 melanoma): 34.2 µM | TGI (SK-MEL-5 melanoma): 25 µM and > 100 µM | GI50 (NCI-H522 lung): 5.34 µM | GI50 (786-0 renal): 13.4 µM | TGI (786-0 renal): 25 µM and > 100 µM | GI50 (SK-MEL-28 melanoma): 35.3 µM | TGI (SK-MEL-28 melanoma): > 100 µM | TGI (PC-3 prostate): > 100 µM | GI50 (T-47D breast): 6.88 µM | TGI (T-47D breast): 25 µM and > 100 µM | GI50 (MOLT-4 leukemia): 3.58 µM | TGI (MOLT-4 leukemia): 25 µM and > 100 µM | GI50 (KM12 colon): 37.3 µM | TGI (KM12 colon): 25 µM and > 100 µM | GI50 (MALME-3M melanoma): 54.3 µM | TGI (MALME-3M melanoma): 25 µM and > 100 µM | GI50 (TK-10 renal): > 100 µM | TGI (TK-10 renal): > 100 µM | GI50 (M14 melanoma): 23.3 µM | TGI (M14 melanoma): 25 µM and > 100 µM | GI50 (RXF 393 renal): 8.74 µM | TGI (RXF 393 renal): 25 µM and > 100 µM | GI50 (NCI-H460 lung): 0.123 µM | TGI (NCI-H460 lung): 25 µM and > 100 µM | GI50 (CAKI-1 renal): 5.51 µM | TGI (CAKI-1 renal): 25 µM and > 100 µM | TGI (MDA-MB-231 breast): > 100 µM | GI50 (A549 NSCLC): 28.7 µM | TGI (A549 NSCLC): 25 µM and > 100 µM | GI50 (SF-268 CNS): 16.6 µM | TGI (SF-268 CNS): 25 µM and > 100 µM | GI50 (OVCAR-3 ovarian): 16.1 µM | TGI (OVCAR-3 ovarian): 25 µM and 65.4 µM | TGI (SK-MEL-2 melanoma): > 100 µM | TGI (UO-31 renal): > 100 µM | GI50 (NCI-H226 lung): 25.2 µM | TGI (NCI-H226 lung): 25 µM and > 100 µM | GI50 (NCI/ADR-RES ovarian): 25.9 µM | TGI (NCI/ADR-RES ovarian): 25 µM and > 100 µM | GI50 (UACC-257 melanoma): 2.57 µM | TGI (UACC-257 melanoma): 25 µM and > 100 µM | GI50 (HCT-116 colon): 8.17 µM | TGI (HCT-116 colon): 25 µM and 82.1 µM | GI50 (SN12C renal): 25.9 µM | TGI (SN12C renal): 25 µM and > 100 µM | TGI (MCF7 breast): > 100 µM | GI50 (SW-620 colon): 8.09 µM | TGI (SW-620 colon): 25 µM and > 100 µM | GI50 (SR leukemia): 3.37 µM | TGI (SR leukemia): 25 µM and 15.4 µM | GI50 (HOP-62 NSCLC): 21 µM | TGI (HOP-62 NSCLC): 25 µM and 68.3 µM | GI50 (SF-539 CNS): 37.1 µM | TGI (SF-539 CNS): 25 µM and > 100 µM | GI50 (HOP-92 NSCLC): > 100 µM | TGI (HOP-92 NSCLC): > 100 µM | GI50 (NCI-H23 lung): 20.8 µM | TGI (NCI-H23 lung): 25 µM and > 100 µM | GI50 (BT-549 breast): 16.7 µM | TGI (BT-549 breast): 25 µM and > 100 µM | GI50 (SNB-19 CNS): 59.9 µM | TGI (SNB-19 CNS): 25 µM and > 100 µM | TGI (HCC-2998 colon): > 100 µM | GI50 (SK-OV-3 ovarian): 64.8 µM | TGI (SK-OV-3 ovarian): > 100 µM | GI50 (IGROV1 ovarian): 16.9 µM | TGI (IGROV1 ovarian): 22.5 µM and > 100 µM | TGI (ACHN renal): 25 µM and > 100 µM | GI50 (UACC-62 melanoma): 27.5 µM | TGI (UACC-62 melanoma): 25 µM and > 100 µM | GI50 (RPMI-8226 leukemia): 9.24 µM | TGI (RPMI-8226 leukemia): 25 µM and > 100 µM | GI50 (OVCAR-4 ovarian): 28 µM | TGI (OVCAR-4 ovarian): 25 µM and > 100 µM | TGI (A498 renal): > 100 µM | TGI (OVCAR-8 ovarian): 25 µM and > 100 µM | GI50 (CCRF-CEM leukemia): 1.85 µM | TGI (CCRF-CEM leukemia): 25 µM and 12.2 µM | GI50 (MDA-MB-435): 33.2 µM | TGI (MDA-MB-435): 25 µM and > 100 µM | TGI (LOX IMVI melanoma): 25 µM and > 100 µM | GI50 (OVCAR-5 ovarian): 68.2 µM | TGI (OVCAR-5 ovarian): 25 µM and > 100 µM | GI50 (HL-60(TB) leukemia): 3.12 µM | TGI (HL-60(TB) leukemia): 24.6 µM and 17.6 µM | GI50 (SF-295 CNS): 21.8 µM | TGI (SF-295 CNS): 25 µM and > 100 µM | TGI (DU-145 prostate): 25 µM and > 100 µM | GI50 (HCT-15 colon): 7.97 µM | TGI (HCT-15 colon): 25 µM and > 100 µM | GI50 (HT29 colon): 31.3 µM | TGI (HT29 colon): 25 µM and > 100 µM | GI50 (COLO 205 colon): 28.2 µM | TGI (COLO 205 colon): 25 µM and > 100 µM | GI50 (EKVX NSCLC): 52.2 µM | TGI (EKVX NSCLC): 25 µM and > 100 µM | GI50 (U251 CNS): 31.8 µM | TGI (U251 CNS): 25 µM and > 100 µM | GI50 (SNB-75 CNS): 27.9 µM | TGI (SNB-75 CNS): 25 µM and > 100 µM | GI50 (K-562 leukemia): 5.4 µM | TGI (K-562 leukemia): 25 µM and > 100 µM | TGI (HS 578T breast): > 100 µM
